Assay results: PubChem BioAssay (NCI)
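96-well plates; 48 h exposure; 5 concentrations. Endpoints by linear interpolation between flanking doses. Not reached: highest tested concentration assigned. GI50: concentration for 50% inhibition of growth. TGI is the concentration that stops growth completely.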

Assays:
Assay in all cases: inhibition of tumour cell growth, NCI panel, 48 h
HOP-62 NSCLC = tested on: HOP-62 NSCLC
K-562 leukemia = tested on: K-562 leukemia
SK-MEL-5 melanoma = tested on: SK-MEL-5 melanoma
SF-539 CNS = tested on: SF-539 CNS
SK-MEL-2 melanoma = tested on: SK-MEL-2 melanoma
NCI-H460 lung = tested on: NCI-H460 lung
HCT-116 colon = tested on: HCT-116 colon
KM12 colon = tested on: KM12 colon
HT29 colon = tested on: HT29 colon
HCC-2998 colon = tested on: HCC-2998 colon
IGROV1 ovarian = tested on: IGROV1 ovarian
ACHN renal = tested on: ACHN renal
NCI/ADR-RES ovarian = tested on: NCI/ADR-RES ovarian
SK-MEL-28 melanoma = tested on: SK-MEL-28 melanoma
SNB-75 CNS = tested on: SNB-75 CNS
OVCAR-5 ovarian = tested on: OVCAR-5 ovarian
T-47D breast = tested on: T-47D breast
LOX IMVI melanoma = tested on: LOX IMVI melanoma
MALME-3M melanoma = tested on: MALME-3M melanoma
HCT-15 colon = tested on: HCT-15 colon
HS 578T breast = tested on: HS 578T breast
NCI-H226 lung = tested on: NCI-H226 lung
BT-549 breast = tested on: BT-549 breast
786-0 renal = tested on: 786-0 renal
U251 CNS = tested on: U251 CNS
MDA-MB-435 = tested on: MDA-MB-435
MOLT-4 leukemia = tested on: MOLT-4 leukemia
CAKI-1 renal = tested on: CAKI-1 renal
HOP-92 NSCLC = tested on: HOP-92 NSCLC
MCF7 breast = tested on: MCF7 breast
OVCAR-4 ovarian = tested on: OVCAR-4 ovarian
A498 renal = tested on: A498 renal
CCRF-CEM leukemia = tested on: CCRF-CEM leukemia
UACC-62 melanoma = tested on: UACC-62 melanoma
RPMI-8226 leukemia = tested on: RPMI-8226 leukemia
OVCAR-8 ovarian = tested on: OVCAR-8 ovarian
RXF 393 renal = tested on: RXF 393 renal
SN12C renal = tested on: SN12C renal
PC-3 prostate = tested on: PC-3 prostate
M14 melanoma = tested on: M14 melanoma
A549 NSCLC = tested on: A549 NSCLC
SW-620 colon = tested on: SW-620 colon
SR leukemia = tested on: SR leukemia
NCI-H522 lung = tested on: NCI-H522 lung
TK-10 renal = tested on: TK-10 renal
SNB-19 CNS = tested on: SNB-19 CNS
COLO 205 colon = tested on: COLO 205 colon
HL-60(TB) leukemia = tested on: HL-60(TB) leukemia
SK-OV-3 ovarian = tested on: SK-OV-3 ovarian
NCI-H23 lung = tested on: NCI-H23 lung
SF-268 CNS = tested on: SF-268 CNS
SF-295 CNS = tested on: SF-295 CNS
OVCAR-3 ovarian = tested on: OVCAR-3 ovarian
MDA-MB-231 breast = tested on: MDA-MB-231 breast
DU-145 prostate = tested on: DU-145 prostate
EKVX NSCLC = tested on: EKVX NSCLC
UACC-257 melanoma = tested on: UACC-257 melanoma

Work on `COc1ccc2c(c1)C(=O)c1c-2c(=O)n(CCCCCCC(=O)NO)c2ccccc12` yielded a GI50 (HOP-62 NSCLC) of 98.7 nM, a TGI (HOP-62 NSCLC) of 2710 nM and a GI50 (K-562 leukemia) of 260 nM. The TGI (K-562 leukemia) was > 100000 nM, the GI50 (SK-MEL-5 melanoma) was 184 nM and the TGI (SK-MEL-5 melanoma) was 1080 nM. For the same compound, the GI50 (SF-539 CNS) was 480 nM, the TGI (SF-539 CNS) was 28700 nM and the GI50 (SK-MEL-2 melanoma) was 1230 nM. The TGI (SK-MEL-2 melanoma) was 5900 nM, the GI50 (NCI-H460 lung) was 269 nM and the TGI (NCI-H460 lung) was > 100000 nM. It also gave a GI50 (HCT-116 colon) of 66.4 nM, a TGI (HCT-116 colon) of 1150 nM and a GI50 (KM12 colon) of 358 nM. The GI50 (HT29 colon) was 282 nM, the TGI (HT29 colon) was 2750 nM and the GI50 (HCC-2998 colon) was 398 nM. The TGI (HCC-2998 colon) was 1840 nM, the GI50 (IGROV1 ovarian) was 732 nM and the TGI (IGROV1 ovarian) was 12200 nM. The GI50 (ACHN renal) was 226 nM, the TGI (ACHN renal) was 1700 nM and the GI50 (NCI/ADR-RES ovarian) was 94.1 nM. It also gave a TGI (NCI/ADR-RES ovarian) of 2290 nM, a GI50 (SK-MEL-28 melanoma) of 478 nM and a TGI (SK-MEL-28 melanoma) of 3120 nM. For the same compound, the GI50 (SNB-75 CNS) was 93 nM, the TGI (SNB-75 CNS) was 13800 nM and the GI50 (OVCAR-5 ovarian) was 527 nM. The TGI (OVCAR-5 ovarian) was 12300 nM, the GI50 (T-47D breast) was 94.8 nM and the TGI (T-47D breast) was 526 nM. For the same compound, the GI50 (LOX IMVI melanoma) was 236 nM, the TGI (LOX IMVI melanoma) was 1130 nM and the GI50 (MALME-3M melanoma) was 202 nM. The TGI (MALME-3M melanoma) was 60900 nM, the GI50 (HCT-15 colon) was 602 nM and the TGI (HCT-15 colon) was > 100000 nM. For the same compound, the GI50 (HS 578T breast) was 160 nM, the TGI (HS 578T breast) was 4470 nM and the GI50 (NCI-H226 lung) was 1180 nM. For the same compound, the TGI (NCI-H226 lung) was > 100000 nM, the GI50 (BT-549 breast) was 2710 nM and the TGI (BT-549 breast) was 42600 nM. It also gave a GI50 (786-0 renal) of 1320 nM, a TGI (786-0 renal) of 11500 nM and a GI50 (U251 CNS) of 352 nM. The TGI (U251 CNS) was 2010 nM, the GI50 (MDA-MB-435) was 197 nM and the TGI (MDA-MB-435) was 2290 nM. For the same compound, the GI50 (MOLT-4 leukemia) was 139 nM, the TGI (MOLT-4 leukemia) was > 100000 nM and the GI50 (CAKI-1 renal) was 720 nM. The TGI (CAKI-1 renal) was 3720 nM, the GI50 (HOP-92 NSCLC) was 197 nM and the TGI (HOP-92 NSCLC) was 1240 nM. The GI50 (MCF7 breast) was 226 nM, the TGI (MCF7 breast) was 10200 nM and the GI50 (OVCAR-4 ovarian) was 1110 nM. For the same compound, the TGI (OVCAR-4 ovarian) was 17500 nM, the GI50 (A498 renal) was 245 nM and the TGI (A498 renal) was 985 nM. For the same compound, the GI50 (CCRF-CEM leukemia) was 138 nM, the TGI (CCRF-CEM leukemia) was > 100000 nM and the GI50 (UACC-62 melanoma) was 145 nM. For the same compound, the TGI (UACC-62 melanoma) was 1380 nM, the GI50 (RPMI-8226 leukemia) was 259 nM and the TGI (RPMI-8226 leukemia) was > 100000 nM. The GI50 (OVCAR-8 ovarian) was 329 nM, the TGI (OVCAR-8 ovarian) was 25200 nM and the GI50 (RXF 393 renal) was 224 nM. It also gave a TGI (RXF 393 renal) of 1770 nM, a GI50 (SN12C renal) of 1360 nM and a TGI (SN12C renal) of 88200 nM. The GI50 (PC-3 prostate) was 491 nM, the TGI (PC-3 prostate) was > 100000 nM and the GI50 (M14 melanoma) was 407 nM. For the same compound, the TGI (M14 melanoma) was 13900 nM, the GI50 (A549 NSCLC) was 416 nM and the TGI (A549 NSCLC) was 3190 nM. The GI50 (SW-620 colon) was 130 nM, the TGI (SW-620 colon) was 695 nM and the GI50 (SR leukemia) was 99.9 nM. For the same compound, the TGI (SR leukemia) was > 100000 nM, the GI50 (NCI-H522 lung) was 82.2 nM and the TGI (NCI-H522 lung) was 1170 nM. For the same compound, the GI50 (TK-10 renal) was 74.3 nM, the TGI (TK-10 renal) was 1680 nM and the GI50 (SNB-19 CNS) was 616 nM. For the same compound, the TGI (SNB-19 CNS) was 13400 nM, the GI50 (COLO 205 colon) was 304 nM and the TGI (COLO 205 colon) was 1710 nM. For the same compound, the GI50 (HL-60(TB) leukemia) was 325 nM, the TGI (HL-60(TB) leukemia) was > 100000 nM and the GI50 (SK-OV-3 ovarian) was 300 nM. The TGI (SK-OV-3 ovarian) was 2970 nM, the GI50 (NCI-H23 lung) was 296 nM and the TGI (NCI-H23 lung) was 1810 nM. The GI50 (SF-268 CNS) was 1060 nM, the TGI (SF-268 CNS) was 9800 nM and the GI50 (SF-295 CNS) was 733 nM. For the same compound, the TGI (SF-295 CNS) was 4850 nM, the GI50 (OVCAR-3 ovarian) was 292 nM and the TGI (OVCAR-3 ovarian) was 2110 nM. The GI50 (MDA-MB-231 breast) was 715 nM, the TGI (MDA-MB-231 breast) was 26000 nM and the GI50 (DU-145 prostate) was 428 nM. The TGI (DU-145 prostate) was 10800 nM, the GI50 (EKVX NSCLC) was 700 nM and the TGI (EKVX NSCLC) was > 100000 nM. For the same compound, the GI50 (UACC-257 melanoma) was 223 nM and the TGI (UACC-257 melanoma) was 2310 nM.
